# According to US20240374580A1, “SMALL MOLECULE INHIBITORS OF AUTOPHAGY AND HISTONE DEACTYLASES AND USES THEREOF” (priority 2021, published 2024):
# Where two headings read alike, the source gives them in different places.
# How the values were obtained:
# [1] = tested on: isolated perfused and ventilated lungs; experiment: PAP in isolated perfused and ventilated lungs (CHQ); conditions: 200 μM, intrapulmonary application
# Method: FIG. 5A-C. […] (A) Left, PAP in isolated perfused and ventilated lungs before, during and after repeated pulmonary arterial perfusion of 40 mM K+ (40K) solution.
# (§1) Similarly. […] Additionally.
# [2] = tested on: HPH in rats; experiment: Development of HPH in rats (hypoxia 10% O2 for 21 days); assay type: in vivo, rat; conditions: 50 mg/kg/day, hypoxia 21 days
# Description: (E) Representative H&E images of small PAs in Nor, Nor+CHQ, Hyp and Hyp+CHQ rats.
# as §1
# [3] = tested on: human PASMC; experiment: Ca2+ dynamics and whole-cell Ca2+ currents in PASMC; assay type: cell-based
# Method: (B) Summarized data showing the amplitude of increase in [Ca2+]cyt induced by application of 10 μM CPA in the absence (first peak) or presence (second peak) of 1.8 mM extracellular Ca2+ (n=44-54 PASMC). […] (D) Summarized data showing [Ca2+]cyt before (basal) and during (ATP) application of ATP in control and CHQ-treated PASMC. Means±SEM, *P<0.05. (E) Summarized data showing ATP-induced increases in [Ca2+]cyt in control and CHQ-treated PASMC. means±SEM *P<0.05. […] Means±SEM, *P<0.05. (G) The current-voltage (I-V) relationship curves constructed from current recordings in PASMC before (Cont), during (CHQ) and after (wash) application of CHQ.
# as §1
# [4] = tested on: SuHx-PH rat model; experiment: Established PH in the SuHx rat model; assay type: in vivo; conditions: 50 mg/kg/day for 2 weeks after 3 weeks SuHx
# Description: FIG. 9A-C. […] (A) Representative right ventricular pressure (RVP).
# as §1
# [5] = tested on: rings of rat PA
# Method: Due to the key role of autophagy in the pathogenesis of many diseases, we (the inventors) were very interested in exploring the benefit of autophagy inhibition for other indications beyond cancer. […] Such experiments first quantified the vasorelaxant effect on rings of rat PA (FIG. 2). […] Similarly. […] Additionally. […] Rats were given a subcutaneous (s.c.) injection of 20 mg/kg SU5416 or vehicle, followed by hypoxia (SuHx) for 3 weeks (10% 02) and normoxia for an additional 2 weeks to elicit severe PH. […] The normoxic control group was exposed to room air only (21% 02) for a total of 5 weeks (Nor).
# [6] = tested on: human PASMC; experiment: Autophagy markers P62 and LC3B in PASMC (Western blot, immunofluorescence); assay type: cell-based; conditions: 20 μM, 24 h
# Description: as §1
# [7] = Method: FIG. 13. […] Mice were treated with vehicle, ROC-325, or HCQ as indicated daily for 42 consecutive days. […] Mean±SD.
# (§2) The majority of lysosomal proteases that control the autophagy-mediated degradation of proteins and organelles require a strict acidic pH microenvironment for their enzymatic activity. Based on this, lysosomal acidity is commonly used as a marker of autophagy status. We treated leukemia cells with ROC-325 and used LysoSensor Green to evaluate the effects of drug treatment on lysosomal pH.
# [8] = clinical; conditions: human, in vivo
# [9] = Phase I clinical trial of HCQ with vorinostat, pharmacokinetic analyses; conditions: humans
# [10] = Oral availability of ROC-325; conditions: in vivo
# Description: (§3) Example data from our published studies are shown here.
# [11] = tested on: normal human CD34+ bone marrow (BM) cells
# Description: as §2
# [12] = tested on: renal proximal tubal endothelial cells (RPTEC)
# Description: as §2
# [13] = tested on: MCT-injected rats; experiment: RVP/RVSP in control and MCT-injected rats; assay type: in vivo, rat; conditions: 10 mg/kg daily for 4w
# Method: (§4) FIG. 14A-E. ROC-325 has promising therapeutic activity in models of PH. A-C: in vivo intact animal experiments (ROC-325 was administered daily at 10 mg/kg for 4w). (A) Representative record showing right ventricular pressure (RVP) in control and ROC-treated rats during normoxia. […] (B) Representative record showing right ventricular pressure (RVP) in control rats, MCT-injected rats and MCT-injected rats treated with ROC. (C) Summarized data showing right ventricular systolic pressure (RVSP), a surrogate measure for pulmonary arterial systolic pressure ([…]), in control, MCT-rats (treated with vehicle) and MCT-rats treated with ROC. […] D-E: ex vivo experiment using isolated perfused/ventilated mouse lungs (ROC was applied via intrapulmonary perfusion for 5 min). (D) Representative record showing pulmonary arterial pressure (PAP) in isolated perfused/ventilated mouse lung before, during and after intrapulmonary arterial perfusion of 40 mM K+ (40K) in the absence or presence of ROC. (E) Summarized data showing 40K-induced increases in PAP before (control), during (ROC) and after (washout) application of ROC.
# (§5) Finally, we tested the therapeutic benefit of ROC-325 in models of experimental PH (FIG. 14). ROC-325 was administered to rats daily at 10 mg/kg for 4w under normoxic and hypoxic conditions. […]
# [14] = tested on: leukemia cells; experiment: LysoSensor Green lysosomal pH (confocal microscopy, FACS); assay type: cell-based; conditions: 1 μM, 6 h
# Method: FIG. 12. Treatment with ROC-325 leads to lysosomal deacidification. Cells were treated with 1 μM ROC-325 for 6 h, stained with Lysosensor Green and propidium iodide (PI, nuclear counterstain) and then visualized by confocal microscopy.
# as §3
# [15] = tested on: broad range of tumor types; conditions: cited from earlier work
# [16] = tested on: MV4-11 cells; experiment: Transmission electron microscopy of autophagosomes; assay type: cell-based; conditions: 1 μM
# Method: FIG. 11. ROC-325 triggers the formation of autophagosomes with undegraded cargo. MV4-11 cells were treated with 1 μM ROC-325 as indicated and visualized by transmission electron microscopy (TEM).
# as §3
# [17] = tested on: isolated perfused/ventilated mouse lungs; experiment: PAP in isolated perfused/ventilated mouse lungs (ROC-325); conditions: intrapulmonary perfusion for 5 min, 40 mM K+
# Method: as §4, §5
# [18] = tested on: autophagy; experiment: Initial preclinical studies of potency against HCQ; conditions: greater than HCQ
# Description: as §3
# [19] = tested on: autophagy; experiment: Autophagy markers LC3B and p62 after ROC-325; assay type: cell-based
# Description: as §3
smiles,measurement,setting,value
"CCN(CC)CCCC(C)Nc1ccnc2cc(Cl)ccc12 (stereo not drawn) [CHQ, chloroquine]",40K-induced increases in PAP,[1],could antagonize the 40K-induced increases in PAP
same,pulmonary vasoconstriction induced by high K+ or hypoxia,[1],attenuates pulmonary vasoconstriction induced by high K+ concentrations or hypoxia
same,PA wall thickness,[2],reduced PA wall thickness
same,right ventricular systolic pressure (RVSP),[2],significantly reduced RVSP
same,store-operated Ca2+ entry,"[3]; 200 μM, 10 μM CPA",inhibits store-operated Ca2+ entry
same,whole-cell Ca2+ currents,[3]; test pulse of +10 mV from −70 mV,reduces whole-cell Ca2+ currents
same,progression of established PH,[4],significant therapeutic benefit against established PH progression
same,reversal of established PH,[4],partially reversed established PH
same,role of the endothelium in the vasorelaxant effect,"[5]; 200 μM, endothelium-intact or endothelium-denuded rings pre-constricted with 1 μM PE",endothelium independent
same,effect of K+ channel blockade on pulmonary vasodilation,"[5]; 200 μM, rings pretreated with paxilline, TEA or ChTX",does not affect the ability of CHQ to induce pulmonary vasodilation
same,isometric tension in isolated PA rings,[5]; rings constricted with 1 μM phenylephrine (PE),decreased isometric tension
same,autophagy (p62 and LC3B),[6],inhibited autophagy
"CCN(CCO)CCCC(C)Nc1ccnc2cc(Cl)ccc12 (stereo not drawn) [HCQ, hydroxychloroquine]",mouse body weight,"[7]; mouse, in vivo",No significant loss of mouse body weight
same,Cmax,[8],< 3000 nM
same,maximum tolerated dose (MTD),[9],600 mg/day
Cc1ccc(NCCN(C)CCNc2ccnc3cc(Cl)ccc23)c2c(=O)c3ccccc3sc12 [ROC-325],oral bioavailability,[10],orally bioavailable
same,therapeutic selectivity,[11],strong therapeutic selectivity
same,therapeutic selectivity,[12],strong therapeutic selectivity
same,mouse body weight,[7]; daily for 42 consecutive days,No significant loss of mouse body weight
same,tolerability,"[7]; oral, daily, 42 days, mice",confirmed its tolerability
same,basal hemodynamics (RVP) in control rats,[13],no effect on basal hemodynamics
same,development of experimental PH (RVSP),[13]; MCT-injected rats,significantly inhibited the development of experimental PH
same,lysosomal pH (LysoSensor Green fluorescence),[14],stimulated lysosomal deacidification
same,single agent anticancer activity compared to HCQ,[15]; broad range of tumor types,significantly superior single agent anticancer activity
same,dose needed to inhibit autophagy compared to HCQ,[15],inhibits autophagy at significantly lower doses
same,autophagosomes with undegraded cargo (TEM),[16],triggered the accumulation of autophagosomes with undegraded cargo
same,high K+-induced pulmonary vasoconstriction (PAP),[17],acutely inhibits high K+-induced pulmonary vasoconstriction
same,potency relative to HCQ,[18],approximately 10 fold
same,autophagy marker LC3B,[19],stimulated the autophagy marker LC3B
same,p62,[19],accumulation of p62
